Assay [1] concerns neofollicle germs in the wound area. Description: Neofollicle germ formation after full thickness excision (FTE) in mice, counted by confocal imaging and AP staining. In kind it is in vivo, C57BL6/J female mice. As for the experimental part:
A study was conducted to assess the degree to which valproic acid could stimulate growth of new hair follicles by in mice when applied after a full thickness excision (FTE) procedure. FTE creates a zone of hair follicles that are 100% newly formed and removes noise from other clouding factors (e.g., migration of pre-existing follicles into the wound) (e.g., as described in Ito et. al., Nature, May 2007, “Wnt-dependent de novo hair follicle regeneration in adult mouse skin after wounding”, the contents of which is herein incorporated by reference in its entirety). The study was conducted with 2 arms (1) vehicle control and (2) 8.3% valproic acid; n=21 mice per arm). Valproic acid or placebo was applied twice daily for 4 days following scab detachment. The resulting data was analyzed and compared to a vehicle compound control cohort.
Day-12 C57BL6/J female mice pups (Jackson Labs) were maintained in cages and fed a high fat diet until day of surgery. […] After 1 hour, the mice were injected with ketamine (70 mg/kg)-xylazine (8 mg/kg), assigned a Study ID, and weight was recorded. […]
The degree of neofollicle germ formation was measured in the wound area, using imaging by confocal microscopy (confocal scanning laser microscope (CSLM) (VivaScope 1500, Lucid Inc., Rochester, N.Y., USA) and counting the number of early hair follicles developing underneath the surface of the skin. […]

Another assay has as its system total hair counts. Particulars: topical; male patients with androgenetic alopecia; Jo et al., Journal of Dermatology 2014; cited from earlier work.

Turning to `CCCC(CCC)C(=O)O` [Valproic Acid, 2-propylpentanoic acid], the “Number of neofollicles versus FTE + vehicle treated controls (in words)” value in assay [1] (FTE + VPA 8.3% topical twice daily for 4 days, mice) is recorded as “strong trend indicating increased numbers of neofollicles”. Besides, the “Mean count of neofollicles (Primary 1 + Primary 2 scoring categories)” value in assay [1] (FTE mice, 8.3% valproic acid in 50% ethanol/30% water/20% propylene glycol, topical 20 uL twice daily for 4 days after scab detachment, n=15, vehicle control 26.3 (n=21), one-tail P 0.066) came out at 37.1. For the same molecule, the “Total hair count (in words)” value with total hair counts is “increase total hair counts”.

Source of the values: US20200289441A1, “METHODS FOR PROMOTING HAIR GROWTH USING VALPROIC ACID” (FOLLICA, INC., priority 2017, published 2020).
